Results from patent US20260355120A1, “"GOOD" BUFFER-BASED CATIONIC LIPIDS FOR NUCLEIC ACID DELIVERY” (SANOFI VACCINES US INC., priority 2023, published 2026).

System: hEPO
Test: Delivery of hEPO mRNA by intramuscular administration of lipid nanoparticles; serum hEPO by ELISA
Type: in vivo, female BALB/cJ mice
Conditions: single IM 0.1 μg/An hEPO mRNA LNP, lipid formulation 1 (N/P 4), MC3 and SM-102 in formulation 2 (N/P 3); for hEPO 6 Hr Mean: 6 h post injection; for hEPO 24 Hr Mean: 24 h post injection
Excerpt: The lipid nanoparticles in the examples of the present invention were formulated using Process A of WO 2018/089801 (see, e.g., Example 1 and FIG. 1 of WO 2018/089801). Process A (“A”) relates to a conventional method of encapsulating mRNA by mixing mRNA with a mixture of lipids, without first pre-forming the lipids into lipid nanoparticles. In an exemplary process, an ethanolic solution of a mixture of lipids (cationic lipid, phosphatidylethanolamine, cholesterol, and polyethylene glycol-lipid) at a fixed lipid to mRNA ratio were combined with an aqueous buffered solution of target mRNA at an acidic pH under controlled conditions to yield a suspension of uniform LNPs. After ultrafiltration and diafiltration into a suitable diluent system, the resulting nanoparticle suspensions were diluted to final concentration, filtered, and stored frozen at −80 °C until use.
Lipid nanoparticle formulations of Table C were prepared by Process A. All of the lipid nanoparticle formulations comprised hEPO mRNA and the different lipids (Cationic Lipid: DMG-PEG2000: Cholesterol: DOPE/DSPC) in the mol % ratios specified in Table C.
The cationic lipids of the present invention and lipid OF-02 were evaluated with lipid nanoparticle formulation 1. MC3 and SM-102 were evaluated with lipid nanoparticle formulation 2, which is a typical formulation for those lipids.
In summary, lipid screening studies were conducted with female BALB/cJ mice 6-8 weeks of age (Jax #000651). Mice were dosed with 0.1 μg in 30 μL of LNPs by a single intramuscular (IM) injection into the gastrocnemius leg muscle. Blood samples were taken 6 and 24 hours post injection and hEPO levels were measured in the blood serum of the mice using an ELISA assay according to the manufacture's protocol (R&D systems, Cat #DEP-00). WO2022/099003 A1 also describes an in vivo assay for intramuscular administration (e.g. on page 46, paragraph [00206]).

`CCCCCCCCCCC(O)CN(CCCC(=O)OCCN1CCN(CCCCSSCCCN(CC(O)CCCC(=O)OC(CC)CC)CC(O)CCCC(=O)OC(CC)CC)CC1)CC(O)CCCCCCCCCC` (stereo not shown) [Compound 18] was tested, and the “hEPO 6 Hr Mean” value was 18.2 ng/mL and the “hEPO 24 Hr Mean” value was 9.2 ng/mL.

For `CCCCCCCCCCCOC(=O)CCCCCN(CCCCCCCC(=O)OC(CCCCCCCC)CCCCCCCC)CCCC(=O)OCCN1CCN(CCCCSSCCCCN(CC(O)CCCCCC(=O)OC(CCCCCCCC)CCCCCCCC)CC2CCCC(=O)O2)CC1` (stereo not shown) [Compound 10], the “hEPO 6 Hr Mean” value was 19.6 ng/mL and the “hEPO 24 Hr Mean” value was 7.7 ng/mL.

With `CCCCCCCCCCC(O)CN(CCCC(=O)OCCN1CCN(CCCCSSCCCCN(CC(O)CCCC(=O)OC(CC)CC)CC(O)CCCC(=O)OC(CC)CC)CC1)CC(O)CCCCCCCCCC` (stereo not shown) [Compound 17] the “hEPO 6 Hr Mean” value was 19.7 ng/mL and the “hEPO 24 Hr Mean” value was 10.4 ng/mL.

For `CCCCC/C=C\C/C=C\CCCCCCCCN(CCCCCCCC(=O)OC(CCCCCCCC)CCCCCCCC)CCCCSSCCCCN1CCN(CCOC(=O)CCCN(CC(O)CCCCCCCCCC)CC(O)CCCCCCCCCC)CC1` (stereo not shown) [Compound 4], the “hEPO 6 Hr Mean” value was 18.8 ng/mL and the “hEPO 24 Hr Mean” value was 12.1 ng/mL.

In the case of `CCCCCCCCCCCOC(=O)CCCCCN(CCCCCCCC(=O)OC(CCCCCCCC)CCCCCCCC)CCCC(=O)OCCN1CCN(CCCCSSCCCCN(CC(O)CCCCCC(=O)OC(CCCCCCCC)CCCCCCCC)CC(O)CCCC(=O)OCCCCCCCCCCC)CC1` (stereo not shown) [Compound 13], the “hEPO 6 Hr Mean” value is reported as 29.5 ng/mL and the “hEPO 24 Hr Mean” value is reported as 13.8 ng/mL.

`CCCCCCCCCCCOC(=O)CCCC(O)CN(CCCCSSCCCCN1CCN(CCOC(=O)CCCN(CC(O)CCCCCC(=O)OC(CCCCCCCC)CCCCCCCC)CC(O)CCCC(=O)OCCCCCCCCCCC)CC1)CC(O)CCCCCC(=O)OC(CCCCCCCC)CCCCCCCC` (stereo not shown) [Compound 14] was tested, and the “hEPO 6 Hr Mean” value was 26.4 ng/mL and the “hEPO 24 Hr Mean” value was 12.8 ng/mL.

`CCCCCCCCCCC(O)CN(CCCC(=O)OCCN1CCN(CCCCSSCCCCN(CC(O)CCCCC(=O)OCC(CC)CC)CC(O)CCCCC(=O)OCC(CC)CC)CC1)CC(O)CCCCCCCCCC` (stereo not shown) [Compound 15] was tested, and the “hEPO 6 Hr Mean” value was 36 ng/mL and the “hEPO 24 Hr Mean” value was 22.8 ng/mL.

In the case of `CCCCCCCCCCCOC(=O)CCCCCN(CCO)CCCCCCCC(=O)OC(CCCCCCCC)CCCCCCCC` [SM102, SM-102, reference compound], the “hEPO 6 Hr Mean” value is reported as 12.5 ng/mL and the “hEPO 24 Hr Mean” value is reported as 13.3 ng/mL.

`CCCCCCCCCCCOC(=O)CCCC(O)CN(CCCCSSCCCCN1CCN(CCOC(=O)CCCN(CC(O)CCCCCCCCCC)CC(O)CCCCCCCCCC)CC1)CC(O)CCCCCC(=O)OC(CCCCCCCC)CCCCCCCC` (stereo not shown) [Compound 8] was tested, and the “hEPO 6 Hr Mean” value was 41.8 ng/mL and the “hEPO 24 Hr Mean” value was 33.3 ng/mL.

In the case of `CCCCCCCCCCC(O)CN(CCCC(=O)OCCN1CCN(CCCCSSCCCN(CC(O)CCCCC(=O)OCC(CC)CC)CC(O)CCCCC(=O)OCC(CC)CC)CC1)CC(O)CCCCCCCCCC` (stereo not shown) [Compound 16], the “hEPO 6 Hr Mean” value is reported as 32.4 ng/mL and the “hEPO 24 Hr Mean” value is reported as 18.7 ng/mL.

For `CCCCCCCC/C=C\CCCCCCC(O)CN(CCCCSSCCCCN1CCN(CCOC(=O)CCCN(CC(O)CCCCCCCCCC)CC(O)CCCCCCCCCC)CC1)CC(O)CCCCCC(=O)OC(CCCCCCCC)CCCCCCCC` (stereo not shown) [Compound 6], the “hEPO 6 Hr Mean” value was 34.7 ng/mL and the “hEPO 24 Hr Mean” value was 18.4 ng/mL.

For `CCCCCCCCCCCOC(=O)CCCCCN(CCCCCCCC(=O)OC(CCCCCCCC)CCCCCCCC)CCCC(=O)OCCN1CCN(CCCCSSCCCN(CC(O)CCCCC(=O)OCC(CC)CC)CC(O)CCCCC(=O)OCC(CC)CC)CC1` (stereo not shown) [Compound 9], the “hEPO 6 Hr Mean” value was 24.3 ng/mL and the “hEPO 24 Hr Mean” value was 15.7 ng/mL.

`CCCCCCCCCCCOC(=O)CCCCCN(CCCCCCCC(=O)OC(CCCCCCCC)CCCCCCCC)CCCCSSCCCCN1CCN(CCOC(=O)CCCN(CC(O)CCCCCCCCCC)CC(O)CCCCCCCCCC)CC1` (stereo not shown) [Compound 2] was tested, and the “hEPO 6 Hr Mean” value was 35.4 ng/mL and the “hEPO 24 Hr Mean” value was 29.2 ng/mL.

In the case of `CCCCC/C=C\C/C=C\CCCCCCCCC(CCCCCCCC/C=C\C/C=C\CCCCC)OC(=O)CCCN(C)C` [MC3, reference compound], the “hEPO 6 Hr Mean” value is reported as 3.9 ng/mL and the “hEPO 24 Hr Mean” value is reported as 2.9 ng/mL.

For `CCCCC/C=C\C/C=C\CCCCCCC(O)CN(CCCCSSCCCCN1CCN(CCOC(=O)CCCN(CC(O)CCCCCCCCCC)CC(O)CCCCCCCCCC)CC1)CC(O)CCCCCC(=O)OC(CCCCCCCC)CCCCCCCC` (stereo not shown) [Compound 7], the “hEPO 6 Hr Mean” value was 31.4 ng/mL and the “hEPO 24 Hr Mean” value was 25.8 ng/mL.

In the case of `CCCCCC/C=C\COC(=O)CCCCCC(O)CN(CCCCSSCCCCN1CCN(CCOC(=O)CCCN(CC(O)CCCCCCCCCC)CC(O)CCCCCCCCCC)CC1)CC(O)CCCCCC(=O)OC(CCCCCCCC)CCCCCCCC` (stereo not shown) [Compound 5], the “hEPO 6 Hr Mean” value is reported as 35 ng/mL and the “hEPO 24 Hr Mean” value is reported as 18.7 ng/mL.

For `CCCCCCCCC(CCCCCCCC)OC(=O)CCCCCC(O)CN(CCCC(=O)OCCN1CCN(CCCCSSCCCN(CC(O)CCCCC(=O)OCC(CC)CC)CC(O)CCCCC(=O)OCC(CC)CC)CC1)CC1CCCC(=O)O1` (stereo not shown) [Compound 11], the “hEPO 6 Hr Mean” value was 18.7 ng/mL and the “hEPO 24 Hr Mean” value was 10.1 ng/mL.

In the case of `CCCCCC/C=C\COC(=O)CCCCCCCN(CCCCCCCC(=O)OC(CCCCCCCC)CCCCCCCC)CCCCSSCCCCN1CCN(CCOC(=O)CCCN(CC(O)CCCCCCCCCC)CC(O)CCCCCCCCCC)CC1` (stereo not shown) [Compound 3], the “hEPO 6 Hr Mean” value is reported as 20.5 ng/mL and the “hEPO 24 Hr Mean” value is reported as 19.3 ng/mL.

With `CCCCCCCCCCCOC(=O)CCCC(O)CN(CCCC(=O)OCCN1CCN(CCCCSSCCCN(CC(O)CCCCC(=O)OCC(CC)CC)CC(O)CCCCC(=O)OCC(CC)CC)CC1)CC(O)CCCCCC(=O)OC(CCCCCCCC)CCCCCCCC` (stereo not shown) [Compound 12] the “hEPO 6 Hr Mean” value was 37.4 ng/mL and the “hEPO 24 Hr Mean” value was 21 ng/mL.

In the case of `CCCCCCCC/C=C\CCCCCCCCN(CCCCCCCC(=O)OC(CCCCCCCC)CCCCCCCC)CCCCSSCCCCN1CCN(CCOC(=O)CCCN(CC(O)CCCCCCCCCC)CC(O)CCCCCCCCCC)CC1` (stereo not shown) [Compound 1], the “hEPO 6 Hr Mean” value is reported as 11 ng/mL and the “hEPO 24 Hr Mean” value is reported as 9.5 ng/mL.
